Experimental data as given in PMC11836371, “Virtual fragment screening for DNA repair inhibitors in vast chemical space” (Nature Communications, 2025).
Where “and” joins values, the source holds several entries; their conditions need not be identical. Equal values may be shown once.

Key:
OGG1-GFP in U2OS cells = biological target: T1, OGG1-GFP in U2OS cells (Homo sapiens, UniProt O15527); experiment: Laser microirradiation assay (OGG1-GFP recruitment to DNA damage sites); assay type: cell-based; conditions: 10uM, single-cell replicate traces
T1 construct: expressed in transfected cells
T1 sequence (O15527 whole entry): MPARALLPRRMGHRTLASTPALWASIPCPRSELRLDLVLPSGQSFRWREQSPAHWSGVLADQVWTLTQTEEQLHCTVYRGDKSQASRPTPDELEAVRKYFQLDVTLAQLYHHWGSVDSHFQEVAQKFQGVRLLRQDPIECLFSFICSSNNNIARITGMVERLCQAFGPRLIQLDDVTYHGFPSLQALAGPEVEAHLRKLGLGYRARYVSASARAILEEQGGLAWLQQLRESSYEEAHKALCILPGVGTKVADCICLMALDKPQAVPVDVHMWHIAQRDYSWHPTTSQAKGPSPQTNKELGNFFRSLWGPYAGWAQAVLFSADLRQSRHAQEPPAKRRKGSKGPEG

[1] = system: NF-κB activation in HEK293T pGF NF-κB cells; experiment: TNF-α induced NF-κB activation assay; assay type: cell-based
Experimental: The inhibition of TNF-α induced NF-κB activation was measured in HEK293T cells transfected with the pGreenfire NF-κB plasmid. This is a plasmid that has NF-κB response elements (TRE) coupled to GFP and luciferase expression. When the NF-κB is activated by TNF-α, it binds to the TRE and induces GFP expression, and the fluorescence can be measured in a plate reader. The cells were authenticated with STR profiling, frozen down and these stocks were used in experiments. The HEK293T pGF NF-κB cells were kept in DMEM with 5% FBS and 1% P/S but, when seeded for the assay the medium was changed to DMEM FluoroBrite with 1% dialyzed FBS. All cell culture reagents were purchased from Thermo Fisher Scientific. Compounds were nano-dispensed (Echo acoustic dispenser) in 96-well, black/clear, assay plates (Corning #3904), duplicate plates, in 8-points dose-response curves, 1:2 dilutions, with DMSO compensation (0.3% DMSO). Cells were seeded at 30000 cells/well in medium containing 10 ng/mL of TNF-α (Sigma-Aldrich), except negative control wells which only contained cells in medium. Cells were cultured for 24 hours in a humidified incubator at 37 °C with 5% CO2 after which the GFP fluorescence was measured in a Sense plate reader (Hidex) with ex485/em535. The RFU data from the duplicate plates were combined to calculate % inhibition of NF-κB activation and IC50-values were calculated using XLfit (IDBS). In parallel with the NF-κB assay, a CellTiterGlo (Promega) cell viability assay was run to exclude compounds affecting cell viability. Compounds were nano-dispensed (Echo acoustic dispenser) in assay plates in 11-points dose-response curves, 1:3 dilutions, without DMSO compensation, with duplicates on the same plate. Cells were seeded at 7500 cells/well in 25 µL medium (DMEM FluoroBrite with 1% dialyzed FBS) containing 10 ng/mL TNF-α and cultured for 24 hours, with column 24 containing only culture medium. After equilibration to room temperature, the CellTiterGlo reagents were mixed and 25 µL/well were added to the cell plate. After 2 min mixing of the plate on an orbital shaker, the plate was incubated for 10 min at room temperature followed by luminescence reading in Sense. The cell viability was calculated compared to untreated control wells and the EC50 values were determined in XLfit (IDBS). […]

[2] = Caco-2 cell permeability assay; assay type: in vitro ADME; conditions: human, Caco-2, pH 7.4
Experimental: Prior to the experiment a drug solution of 10 µM was prepared and warmed to 37 °C. The Caco-2 filters were washed with pre-warmed HBSS prior to the experiment, and thereafter the experiment was started by applying the donor solution on the apical or basolateral side. The transport experiments were carried out at pH 7.4 in both the apical and basolateral chamber. The experiments were performed at 37 °C and with a stirring rate of 500 rpm. The receiver compartment was sampled at 15, 30, and 60 min, and at 60 min also a final sample from the donor chamber was taken to calculate the mass balance of the compound. The samples (100 µL) were transferred to a 96-well plate containing 100 µL methanol and Warfarin as IS and was sealed until analyzed by liquid chromatography coupled to triple quadrupole mass spectrometry (LC-MS/MS).

A549 cells = experiment: Cancer cell viability assay (resazurin), A549; assay type: cell-based; conditions: two independent experiments
Experimental: (§1) Three different cancer cell lines A2780 (ovarian cancer, ECACC 93112519), A549 (lung cancer, ATCC 60150896) and HCT116 (colon cancer, ATCC CCL-247), and one immortalized fibroblast cell line (BJhTERT) as control, were seeded in black/clear 384-well plates (Corning #3764), 50 µL/well, containing 11 concentrations, nano-dispensed, dose-response curves of the test compounds. A2780, HCT116, and HEK293T cell lines were authenticated with STR profiling, frozen down, and these stocks were used in experiments. The A2780 cells were cultured in RPMI 1640, the A549 and BJhTERT cells in DMEM, and the HCT116 cells in McCoys 5 A medium. All media were supplemented with 10% FBS and 1% P/S. All cell culture media, additives, and reagents were purchased from Thermo Fisher Scientific. The cell plates were incubated 72 hours in a humidified incubator at 37 °C with 5% CO2, after which resazurin (Sigma-Aldrich), 10 µL/well, was added to a final concentration of 10 µg/mL. The plates were incubated for 6 hours with resazurin followed by fluorescence readings in a Sense plate reader (Hidex), resorufin protocol (ex 544 nm/em 595 nm). The cell viability was calculated compared to untreated control wells and the EC50 values were determined in XLfit (IDBS).

HCT116 cells = experiment: Cancer cell viability assay (resazurin), HCT116; assay type: cell-based; conditions: two independent experiments
Experimental: as §1

Q: Which results are given for `O=C(Nc1ccc(I)cc1)N1CCC(n2c(=O)[nH]c3c(Br)cccc32)CC1` [TH5487, reference compound]?
A: OGG1-GFP recruitment to DNA damage sites, intensity normalised to time 0 (Figure3E) (OGG1-GFP in U2OS cells; time 14 s): 1.22 (3×) and 1.25 and 1.18 (2×) and 1.31 and 1.24 and 1.32 (2×) and 1.15 and 1.27 and 1.19 (2×) and 1.28; OGG1-GFP recruitment to DNA damage sites, intensity normalised to time 0 (Figure3E) (OGG1-GFP in U2OS cells; time 16 s): 1.24 and 1.28 and 1.23 (2×) and 1.18 (2×) and 1.34 and 1.25 and 1.32 and 1.19 and 1.29 and 1.2 and 1.22 and 1.31 and 1.3; OGG1-GFP recruitment to DNA damage sites, intensity normalised to time 0 (Figure3E) (OGG1-GFP in U2OS cells; time 18 s): 1.25 (2×) and 1.31 (2×) and 1.24 and 1.21 and 1.35 (2×) and 1.26 and 1.18 and 1.2 and 1.3 and 1.22 and 1.23 and 1.33; OGG1-GFP recruitment to DNA damage sites, intensity normalised to time 0 (Figure3E) (OGG1-GFP in U2OS cells; time 20 s): 1.26 and 1.31 (2×) and 1.24 (3×) and 1.2 and 1.35 and 1.29 and 1.37 and 1.16 and 1.19 and 1.27 and 1.36 and 1.33; OGG1-GFP recruitment to DNA damage sites, intensity normalised to time 0 (Figure3E) (OGG1-GFP in U2OS cells; time 22 s): 1.27 and 1.32 and 1.28 (3×) and 1.2 and 1.36 and 1.37 (2×) and 1.18 and 1.22 (2×) and 1.34 and 1.25 and 1.35; OGG1-GFP recruitment to DNA damage sites, intensity normalised to time 0 (Figure3E) (OGG1-GFP in U2OS cells; time 24 s): 1.29 (2×) and 1.32 and 1.25 (2×) and 1.21 and 1.37 (2×) and 1.39 and 1.18 and 1.22 and 1.35 and 1.3 and 1.24 and 1.36; OGG1-GFP recruitment to DNA damage sites, intensity normalised to time 0 (Figure3E) (OGG1-GFP in U2OS cells; time 26 s): 1.29 (2×) and 1.32 and 1.28 and 1.21 and 1.38 (2×) and 1.4 and 1.19 and 1.22; % inhibition of NF-κB activation (Figure3F) ([1]; Concentration 2.34e-7, single replicates): 18.9% and 16.9% and 37.3% and 20.7% and 19.4% and 19.3%; % inhibition of NF-κB activation (Figure3F) ([1]; Concentration 4.69e-7, single replicates): 18.1% and 35.6% and 25.7% and 21.2% and 9.2%; % inhibition of NF-κB activation (Figure3F) ([1]; Concentration 9.38e-7, single replicates): 12.4% and 13.4% and 36.2% and 34.5% and 36.5% and 30%; % inhibition of NF-κB activation (Figure3F) ([1]; Concentration 1.88e-6, single replicates): 21% and 33.9% and 49.1% and 39.2% and 40.4% and 37.2%; % inhibition of NF-κB activation (Figure3F) ([1]; Concentration 3.75e-6, single replicates): 58.6% and 64.7% and 55% and 52% and 44.1% and 44%; % inhibition of NF-κB activation (Figure3F) ([1]; Concentration 7.5e-6, single replicates): 81.2% and 86.7% and 75.9% and 78.4% and 98.7% and 81.3%; % inhibition of NF-κB activation (Figure3F) ([1]; Concentration 1.5e-5, single replicates): 101.6% and 99.3% (2×) and 95.7% and 105.1% and 123.3%; % inhibition of NF-κB activation (Figure3F) ([1]; Concentration 3e-5, single replicates): 104.2% and 102% and 99.9% and 101.1% and 123.3% and 102.7%; Papp A→B at 60 min, 10 µM ([2]; read-out: Papp AB (10–6 cm/s)): 4.16 ×10⁻⁶ cm/s; Papp B→A at 60 min, 10 µM ([2]; read-out: Papp BA (10–6 cm/s)): 4.83 ×10⁻⁶ cm/s

Q: With `Nc1nn(-c2ccc(CC(=O)Nc3noc4c3CCCC4)cc2)c2ccccc12` [compound 11] as the compound, how does the EC50 ([1]; Homo sapiens, HEK-293T, NFκB activation assay, ± SD, read-out: pEC50 (converted)) read?
A: 10 µM

Q: And the percentage cell viability (A549 cells; A549, 100 μM, 100 µM)?
A: 21.3%

Q: And the viability at 100 µM (A549 cells; Homo sapiens, A549, A549, 100 μM, read-out: percentage cell viability)?
A: 17.2%

Q: And the percentage cell viability (HCT116 cells; HCT116, 100 μM, 100 µM)?
A: 20.29%

Q: And the viability at 100 µM (HCT116 cells; Homo sapiens, HCT-116, HCT116, 100 μM, read-out: percentage cell viability)?
A: 20%
